Measurements from patent US20240423954A1, “Chlorthalidone Compositions And Methods” (Nivagen Pharmaceuticals, Inc., priority 2020, published 2024).

Experiment: Initial experiments on chlorthalidone API in solution
Assay type: physicochemical
Conditions: without excipients; would agglomerate and cake
Text: Accordingly, for stabilizing the chlorthalidone in a stabilized suspension, the inventors contemplated combining the chlorthalidone with select excipients. These excipients include at least a solubilizing and/or a wetting agent, at least one suspending agent, at least one viscosity increasing agent or at least one anti-caking agent, and water. The suspension may also further include an anti-foaming agent, at least one antimicrobial, and at least one sweetening agent.

**Q.** Which “stability of the API in solution” value does the source give for `NS(=O)(=O)c1cc(C2(O)NC(=O)c3ccccc32)ccc1Cl` (stereo not shown) [chlorthalidone, Chlorthalidone] here?
**A.** The value was “not stable in solution”.
